{"source": "patent US12138398B2", "about": "“Methods and devices for providing a stimulus to a subject to induce gamma oscillations” (Massachusetts Institute of Technology, priority 2015, dated 2024)", "key": {"AD patients": {"tested_on": "AD patients", "settings": "cited from earlier work"}, "[1]": {"tested_on": "organotypic hippocampal slices prepared from transgenic (Tg) mice overexpressing APP", "settings": "cited from earlier work"}, "[2]": {"tested_on": "Aβ1-40 and Aβ1-42 levels in 5×FAD visual cortex", "assay": "Aβ ELISA of visual cortex after one hour 40-Hz light flicker with picrotoxin pretreatment", "type": "in vivo, mouse", "description": "FIGS. 47A and 47B are bar graphs depicting changes in baseline levels of Aβ1-40 and Aβ1-42, respectively, in 5×FAD visual cortex in dark, light, 40-Hz flicker, 20-Hz flicker, 80-Hz flicker, 40-Hz flicker with picrotoxin (PTX) and Random flicker conditions in accordance with some embodiments (n=12 mice per group for dark; n=6 mice per group for light, 40-Hz flicker, 20-Hz flicker, 80-Hz flicker, and PTX; n=4 mice per group for Random flicker; “n.s.” indicates not significant, one asterisk indicates p<0.05, and two asterisks indicate p<0.01 by one-way ANOVA). FIGS. 47 and 47B show mean and SEM. Circles superimposed on bars in the bar graphs indicate individual data points in each group. Following one hour after light exposure, it was observed that Aβ1-40 levels in visual cortex were reduced by 57.96% and Aβ1-42 levels by 57.97% compared to the dark condition (as measured by Aβ ELISA, see, e.g., FIGS. 47A and 47B, p<0.05 by one-way ANOVA, n=6 mice per group). Compared to light controls, amyloid levels were reduced by 62.47% (Aβ1-40) and 68.55% (Aβ1-42) following one hour of 40-Hz flicker (as measured by Aβ ELISA, see, e.g., FIG. 4′7, p<0.05 by one-way ANOVA, n=6 mice per group). […]\nFifteen minutes prior to the experiment 5×FAD mice were treated with saline (Control) or picrotoxin (0.18 mg/kg). For molecular and biochemical analyses mice were then placed in a dark chamber illuminated by an LED bulb and exposed to one of five stimulation conditions: dark, light, 20-Hz flicker, 40-Hz flicker, or 80-Hz flicker (12.5 ms light on, 12.5 ms light off) for one hour (see, e.g., FIG. 43A). For electrophysiological recordings each animal received dark, light, 40-Hz flicker, or random (light pulses were delivered with a random interval determined by a Poisson process with an average interval of 40 Hz) stimulation conditions interleaved in 10 s blocks during recordings. […]"}, "[3]": {"settings": "5×FAD visual cortex (VC), 40 Hz flicker one hour + PTX (0.18 mg/kg pretreatment), ELISA dilution 1:2, individual mice"}}, "note": "Where “and” joins values, the source holds several entries; their conditions need not be identical. Identical values can stand only once. Like-named read-outs stand apart in the source and are kept apart here."}
{"molecule": "COc1cc2c(cc1OC)C(=O)C(CC1CCN(Cc3ccccc3)CC1)C2", "note": "(stereo not drawn) [donepezil]", "values": [{"measurement": "clinical outcome on cognition", "setting": "AD patients; human, in vivo", "result": "only mild cognitive benefits"}]}
{"molecule": "CCN(C)C(=O)Oc1cccc([C@H](C)N(C)C)c1", "note": "[rivastigmine]", "values": [{"measurement": "clinical outcome on cognition", "setting": "AD patients; AD subjects", "result": "only mild cognitive benefits"}]}
{"molecule": "CC(C)[C@H](O)C(=O)N[C@@H](C)C(=O)N[C@@H]1C(=O)N(C)CCc2ccccc21", "note": "[semagacestat]", "values": [{"measurement": "clinical outcome on cognition", "setting": "AD patients; AD subjects", "result": "worsening of cognitive deficits"}]}
{"molecule": "NC1=N[C@H](O)[C@H]2[C@H]3O[C@]4(O)O[C@@H]([C@@H](O)[C@@]2(N1)[C@@H]4O)[C@]3(O)CO", "note": "[tetrodotoxin]", "values": [{"measurement": "Aβ levels", "setting": "[1]", "result": "decreased"}, {"measurement": "neuronal activity", "setting": "[1]", "result": "decreased"}]}
{"molecule": "picrotoxin [PTX]", "values": [{"measurement": "effects of 40-Hz flicker on Aβ levels after picrotoxin pretreatment", "setting": "[2]; 5×FAD mice, picrotoxin 0.18 mg/kg", "result": "completely abrogated"}, {"measurement": "Average Aβ1-40 Concentration", "setting": "[2]; [3]", "result": "367.2 pg/ml and 431.4 pg/ml and 445.2 pg/ml (2×) and 392.4 pg/ml and 386.7 pg/ml"}, {"measurement": "Aβ1-42 concentration", "setting": "[2]; [3]", "result": "396.6 pg/ml and 540.5 pg/ml and 532.7 pg/ml and 705.0 pg/ml and 104.5 pg/ml (2×)"}, {"measurement": "neuronal activity", "setting": "[1]; organotypic hippocampal slices, APP Tg mice", "result": "increased neuronal activity"}]}
